We go through one compound from patent publication USRE46511E1, “Fused pyrimidine derivatives for inhibition of tyrosine kinase activity” (HANMI SCIENCE CO., LTD., priority 2010, dated 2017).

For data set [1], the system named is HCC827 (EGFR DelE746_A750). In words: Inhibition test for growth of cancer cell expressing EGFR (SRB), HCC827.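 Also: cells in 96-well plates exposed to tenfold serial dilutions from 100 µM, fixed with trichloroacetic acid, SRB-stained, absorbance read at 540 nm, DMSO under 1%.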 The settings on record: Homo sapiens, HCC827, 72 h, HCC827 cells, 72 hours, SRB; read-out: GI50 HCC827 EGFR DelE746_A750. It is filed as cell-based.
Data set [2] deals with NCI-H1975 (EGFR L858R/T790M). The data set can be described thus: Inhibition test for growth of cancer cell expressing EGFR (MTS), NCI-H1975. It is filed as cell-based. The settings on record: Homo sapiens; NCI-H1975 cells, 48 hours, MTS; read-out: GI50 NCI-H1975 EGFR L858R/T790M.
Description: (§2) A431 cell line was incubated in a high-glucose DMEM (Dulbecco's Modified Eagle's Medium) supplemented with 10% fetal bovine serum (FBS) and 1% penicillin/streptomycin (Gibco BRL), and HCC827 and NCI-H1975 cell lines were incubated in an RPMI medium supplemented with 10% FBS, 1% penicillin/streptomycin and 1% sodium pyruvate.
(§3) The cancer cell lines stored in a liquid nitrogen tank were each quickly thawed at 37° C., and centrifuged to remove the medium. The resulting cell pellet was mixed with a culture medium, incubated in a culture flask at 37° C. under 5% CO2 for 2 to 3 days, and the medium was removed. The remaining cells were washed with DPBS (Dulbecco's Phosphate Buffered Saline) and separated from the flask by using Tripsin-EDTA. […] 100 μl of the diluted cell solution was added to each well of a 96-well plate, and incubated at 37° C. under 5% CO2 for 1 day.
(§4) In case that the test compound was not soluble in DMSO, 1% HCl was added thereto and treated in a 40° C. water bath for 30 mins until a complete dissolution was attained. The DMSO solution containing test compound was diluted with a culture medium to a final concentration of 100 μM, and then diluted 10 times serially to 10^−6 μM (a final concentration of DMSO was less than 1%).
(§5) The medium was removed from each well of the 96-well plate. And then, 100 μl of a test compound solution was added to each well holding the cultured cells, and the plate was incubated at 37° C. under 5% CO2 for 72 hours (except that NCI-H1975 cells were incubated for 48 hours). After removing the medium from the plate, 50 μA of 10% trichloroacetic acid was added to each well, and the plate was kept at 4° C. for 1 hour to fix the cells to the bottom of the plate. The added 10% trichloroacetic acid solution was removed from each well, the plate was dried, 100 μA of an SRB (Sulforhodamine-B) dye solution at a concentration of 0.4% dissolved in 1% acetic acid was added thereto, and the resulting mixture was reacted for 10 mins at room temperature. After removing the dye solution, the plate was washed with water, and well dried. When the dye solution was not effectively removed by water, 1% acetic acid was used. 150 μA of 10 mM trisma base was added to each well, and the absorbance at 540 nm wavelength was determined with a microplate reader.
The next data set deals with A431 (EGFR WT). In words: Inhibition test for growth of cancer cell expressing EGFR (SRB), A431.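 Also: cells in 96-well plates exposed to tenfold serial dilutions from 100 µM down to 10^−6 µM, DMSO under 1%, SRB staining read as absorbance at 540 nm.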 The format is cell-based. Conditions: Homo sapiens, A-431; A431 cells, 72 hours, SRB; read-out: GI50 A431 EGFR WT.
For the next data set, the target named is T1, EGFR WT (Homo sapiens, UniProt P00533).
T1 construct: purchased Invitrogen
The data set can be described thus: z-lyte kinase assay, EGFR WT. It is filed as biochemical.

A further data set addresses T2, EGFR L858R/T790M (Homo sapiens, UniProt P00533, L858R/T790M).
T2 construct: purchased Invitrogen
The data set can be described thus: z-lyte kinase assay, EGFR L858R/T790M. The format is biochemical.

The next data set concerns NCI-H1975 cancer cells. The data set can be described thus: Anticancer efficacy test in nude mice xenografted with NCI-H1975 cancer cells. It is filed as in vivo. Conditions: 70 mg/kg, oral, one time a day for 10 days; measured on 16th day after administration. As for the experimental part: NCI-H1975 cell (lung cancer cell) was purchased from American Type Culture Collection (ATCC). After formation of tumor by subcutaneous injection with 1×10^8 cells/0.3 mL of tumor cell suspension on the back of mice, passages were carried out and tumor in at least third generation was used in the test.
(§1) In the test, a tumor in the sixth generation isolated from an individual was cut into a size of 30 mg, and transplanted subcutaneously into right flanks of mice using a 12-gauge trocar. The volume of tumor (V) is calculated from following equation 1 after measuring a long diameter (L) and a short diameter (S) using a vernier caliper twice a week for 18 days of test. All test materials were orally administered one time a day for total 10 days, and the tumor growth inhibition rate (IR: tumor growth inhibition rate (%) calculated based on a vehicle-treated control) and the maximum body weight loss (mBWL: maximum body weight loss calculated based on the body weight just before administration) were calculated using following equations 2 and 3. V=L×S^2/2 <Equation 1>
wherein, L is a long diameter and S is a short diameter. IR(%)=(1−(RTG of the treatment group of test material)/(RTG of the control group))×100 <Equation 2>

The nature of data set [3]: Body weight change in nude mice xenografted with NCI-H1975 cancer cells. The format is in vivo. On the procedure:
as §1, with “. In” for “In”
wherein, RTG is a relative tumor growth, which is the mean tumor volume on a particular day based on […] mean tumor volume. mBWL(%)=(1−(mean body weight on day x/mean body weight just before administration))×100 <Equation 3>
wherein, day x is a day on which the body weight loss is largest during the test.

T2 sequence (P00533 25-1210 T790M/L858R): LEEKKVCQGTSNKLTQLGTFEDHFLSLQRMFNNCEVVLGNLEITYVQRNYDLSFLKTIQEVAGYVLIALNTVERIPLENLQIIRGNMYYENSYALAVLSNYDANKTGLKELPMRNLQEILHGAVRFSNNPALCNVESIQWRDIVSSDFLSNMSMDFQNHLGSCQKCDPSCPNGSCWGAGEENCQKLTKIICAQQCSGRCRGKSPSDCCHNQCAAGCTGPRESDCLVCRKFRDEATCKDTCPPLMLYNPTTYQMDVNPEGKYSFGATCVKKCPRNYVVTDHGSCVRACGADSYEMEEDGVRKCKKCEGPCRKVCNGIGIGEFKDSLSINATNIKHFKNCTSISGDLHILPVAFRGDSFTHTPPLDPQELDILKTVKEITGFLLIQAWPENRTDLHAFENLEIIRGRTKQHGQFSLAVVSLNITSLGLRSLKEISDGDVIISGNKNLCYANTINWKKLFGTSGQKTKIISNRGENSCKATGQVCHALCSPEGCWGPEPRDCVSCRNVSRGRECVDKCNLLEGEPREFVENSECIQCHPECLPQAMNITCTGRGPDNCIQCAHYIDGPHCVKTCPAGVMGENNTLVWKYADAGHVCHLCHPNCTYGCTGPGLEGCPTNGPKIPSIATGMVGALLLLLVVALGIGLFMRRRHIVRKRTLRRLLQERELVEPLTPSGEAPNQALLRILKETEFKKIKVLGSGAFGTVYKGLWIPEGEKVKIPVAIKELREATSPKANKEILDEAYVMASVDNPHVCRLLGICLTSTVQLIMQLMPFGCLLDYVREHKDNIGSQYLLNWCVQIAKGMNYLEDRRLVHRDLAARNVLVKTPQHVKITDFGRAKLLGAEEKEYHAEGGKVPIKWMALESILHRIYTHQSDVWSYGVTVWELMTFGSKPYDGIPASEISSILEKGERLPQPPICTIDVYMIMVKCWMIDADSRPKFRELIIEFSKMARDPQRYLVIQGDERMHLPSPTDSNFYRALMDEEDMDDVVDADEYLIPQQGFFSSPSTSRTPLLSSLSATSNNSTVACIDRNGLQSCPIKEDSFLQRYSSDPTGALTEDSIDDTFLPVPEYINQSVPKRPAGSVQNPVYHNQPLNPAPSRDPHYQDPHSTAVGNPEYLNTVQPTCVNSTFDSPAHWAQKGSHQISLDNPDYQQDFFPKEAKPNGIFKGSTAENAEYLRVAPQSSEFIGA
T1 sequence (P00533 25-1210): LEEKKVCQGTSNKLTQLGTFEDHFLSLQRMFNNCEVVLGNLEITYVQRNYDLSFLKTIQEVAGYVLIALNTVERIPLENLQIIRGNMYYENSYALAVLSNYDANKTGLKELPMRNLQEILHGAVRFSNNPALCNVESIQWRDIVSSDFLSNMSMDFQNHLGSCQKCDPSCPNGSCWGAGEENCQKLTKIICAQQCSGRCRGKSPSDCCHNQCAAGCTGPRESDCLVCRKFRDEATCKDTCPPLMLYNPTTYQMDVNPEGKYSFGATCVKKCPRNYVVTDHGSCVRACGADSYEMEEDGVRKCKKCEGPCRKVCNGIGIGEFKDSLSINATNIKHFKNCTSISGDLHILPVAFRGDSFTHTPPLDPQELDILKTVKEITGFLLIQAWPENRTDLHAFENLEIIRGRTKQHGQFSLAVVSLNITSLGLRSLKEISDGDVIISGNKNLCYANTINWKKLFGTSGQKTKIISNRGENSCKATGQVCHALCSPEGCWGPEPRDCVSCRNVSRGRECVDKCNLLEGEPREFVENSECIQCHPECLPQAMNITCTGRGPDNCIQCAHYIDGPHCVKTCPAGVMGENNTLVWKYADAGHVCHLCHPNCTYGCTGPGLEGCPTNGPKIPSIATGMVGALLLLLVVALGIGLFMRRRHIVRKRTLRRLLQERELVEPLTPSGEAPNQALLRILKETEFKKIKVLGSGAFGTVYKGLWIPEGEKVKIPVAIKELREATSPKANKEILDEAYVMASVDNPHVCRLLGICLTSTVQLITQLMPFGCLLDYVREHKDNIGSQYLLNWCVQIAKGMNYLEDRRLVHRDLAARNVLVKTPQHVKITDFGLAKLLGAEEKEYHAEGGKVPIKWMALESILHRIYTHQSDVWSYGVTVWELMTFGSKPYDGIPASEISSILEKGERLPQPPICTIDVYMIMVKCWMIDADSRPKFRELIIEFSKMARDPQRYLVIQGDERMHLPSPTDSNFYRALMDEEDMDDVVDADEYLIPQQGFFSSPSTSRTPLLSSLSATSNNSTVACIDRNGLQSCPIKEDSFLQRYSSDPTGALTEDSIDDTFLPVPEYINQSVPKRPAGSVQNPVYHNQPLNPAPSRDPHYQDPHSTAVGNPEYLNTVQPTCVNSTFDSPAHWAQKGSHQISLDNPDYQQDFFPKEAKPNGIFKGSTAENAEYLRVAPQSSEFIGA
Description for A431 (EGFR WT): as §2, §3, §4, §5

Broadly, the IC50 is the concentration needed to halve the response being measured. A low value points to higher potency. In the case of `C=CC(=O)Nc1cccc(Oc2nc(Nc3ccc(N4CCN(C)CC4)cc3OC)nc3ccsc23)c1` [Example 2], the GI50 was 50 to 100 nM in data set [1], 50 to 100 nM in data set [2] and greater than 1000 nM in the data set with A431 (EGFR WT). Moreover, the IC50 against EGFR WT was greater than 1000 nM; against EGFR L858R/T790M it was less than 50 nM. Also, in the data set with NCI-H1975 cancer cells, the “IR (tumor growth inhibition rate)” value stood at 75%. In data set [3] (70 mg/kg, oral, one time a day for 10 days, measured on 10th day after administration), the “mBWL (maximum body weight loss)” value is −7.6%. Also, the weight gain in data set [3] (in therapeutically equivalent dose (70 mg/kg), NCI-H1975 xenografted nude mice) is reported as 7.6%.
